Legend:
[1] = Particle size distribution (Malvern Mastersizer 3000); format: physicochemical; conditions: dispersed in n-heptane containing 0.1% span 80 pre-saturated with 6-thioguanine
Procedure: The particles size distribution of the API alone and in the rectal suppository formulations was measured using a Malvern Mastersizer 3000 (Hydro SM). The samples were dispersed in n-heptane containing 0.1% span 80 pre-saturated with 6-thioguanine (to reduce any dissolution of the 6-thioguanine particles in the samples).

induced colitis = conditions: mice lacking the enzyme HPRT, treatment with 6-thioguanine; cited from earlier work

SMILES | D10 [1] [μm] | D50 [1] [μm] | D90 [1] [μm] | reduction in induced colitis (induced colitis) | D10 ([1]; listed as Batch C) [μm] | D50 ([1]; listed as Batch C) [μm] | D90 ([1]; listed as Batch C) [μm]
Nc1nc(=S)c2[nH]cnc2[nH]1 [Sample A, 6-thioguanine] | 5.4 | 66.8 | 261.0 | – | – | – | –
Nc1nc(=S)c2[nH]cnc2[nH]1 [6-thioguanine, 2-amino-1H-purine-6(7H)-thione] | – | – | – | rapid and appreciable reduction in induced colitis | – | – | –
Nc1nc(=S)c2[nH]cnc2[nH]1 [Sample C, 6-thioguanine] | 2.9 | 9.0 | 151.0 | – | 2.9 | 9.0 | 151.0
Nc1nc(=S)c2[nH]cnc2[nH]1 [B, 6-thioguanine] | 5.3 | 69.1 | 267.0 | – | – | – | –

— patent publication US12622914B2, “Pharmaceutical rectal suppository compositions of 6-thioguanine, methods of treatment and/or methods of manufacturing” (Douglas Pharmaceuticals Ltd., priority 2023, dated 2026)
